Patent US20200128823A1, “ALGICIDAL, ALGISTATIC, HERBICIDAL AND HERBISTATIC TREATMENT OF WATER” (priority 2017, published 2020)
Converted amounts (≈) assume the structure as drawn. Where two headings read alike, the source gives them in different places.

How the values were obtained:
[1] = Previous experiments: dissolution in water of a composition of gallic acid alone; assay type: physicochemical; conditions: composition composed only of gallic acid, no excipient
Source text: In order to avoid this problem, excipients of different nature but without algicidal, algistatic, herbicidal or herbistatic effect are preferably added. The excipients are desirable to allow a rapid descent on the bottom of the various conditioning, the dissolution of the active substance or optionally of the active substances and secondly to create a stratum of a density greater than that of the water by a thickening action.

[2] = cited from earlier work

SMILES: O=C(O)c1cc(O)c(O)c(O)c1 [Non-Hydrated Gallic Acid, 3,4,5-trihydroxybenzoic acid]
- Dissolution in water [1]: does not dissolve or is very difficult to dissolve in water

SMILES: O.O=C(O)c1cc(O)c(O)c(O)c1 [Gallic Acid Monohydrate]
- Solubility ([2]; water at 20° C.): 15 mg/mL

SMILES: O=C(O)/C=C/c1ccc(O)c(O)c1 [Caffeic Acid, (E) 3-(3,4-dihydroxyphenyl)prop-2-enoic acid]
- Solubility in water (in words) ([2]; water): poorly soluble in water

SMILES: O=c1c(O)c(-c2ccc(O)c(O)c2)oc2cc(O)cc(O)c12 [Quercetin, 2-(3,4-dihydroxyphenyl)-3,5,7-trihydroxy-4H-chromen-4-one]
- Solubility ([2]; water): 0.06 mg/mL (≈ 0.199 mM)

SMILES: Oc1ccc(/C=C/c2cc(O)cc(O)c2)cc1 [Resveratrol, 5-[(E)-2-(4-hydroxyphenyl)-ethenyl] benzene-1,3-diol]
- Solubility ([2]; DMSO): ~16 mg/mL (≈ 70.1 mM)
- Solubility ([2]; ethanol): 50 mg/mL (≈ 219 mM)
- Solubility ([2]; water): ~0.03 mg/mL (≈ 0.131 mM)

SMILES: O=c1oc2c(O)c(O)cc3c(=O)oc4c(O)c(O)cc1c4c23 [Ellagic Acid, 2,3,7,8-Tetrahydroxy(1)benzopyrano (5,4,3-cde)-(1)benzopyran-5,10-dione]
- Solubility ([2]; at 21° C.): < 1 mg/mL

SMILES: Oc1cccc(O)c1O [Pyrogallic Acid, pyrogallol]
- Solubility in water ([2]; at 20° C.): 588.00 mg/mL (≈ 4660 mM)
